Experimental data reported in US20250318532A1, “ASCAROSIDE COMBINATIONS” (Ascribe Bioscience Inc., priority 2022, published 2025).

Test system: Asian Soybean Rust (ASR)
Test: Soybean field trial in Brazil, ascaroside with Chlorothalonil and APROACH POWER
Format: in vivo
Conditions: ascaroside alone, 250 mg/ac, foliar spray, relative to untreated controls

CC1OC(O[C@H](C)CCCCCCCCC(=O)O)C(O)CC1O (stereo partly shown) [ascr #18]
protection against Asian Soybean Rust: 20-40%
